Patent US20240108641A1, “COMPOSITIONS FOR ORAL ADMINISTRATION OF ZOLEDRONIC ACID OR RELATED COMPOUNDS FOR TREATING DISEASE” (ANTECIP BIOVENTURES II LLC, priority 2012, published 2024)

Tests used:
[1] = system: inflammatory pain (mechanical hyperalgesia); assay type: in vivo, Sprague-Dawley rats
Description: The effect of orally administered zoledronic acid on inflammatory pain was examined using the rat complete Freund's adjuvant (CFA) model. Inflammatory pain was induced by injection of 100% CFA in a 75 μL volume into the left hind paws of Sprague-Dawley® rats on day 0, followed by assessments on days 1-3. Animals were orally administered vehicle (control), zoledronic acid 18 mg/m^2 (or 3 mg/kg), zoledronic acid 120 mg/m^2 (or 20 mg/kg), or zoledronic acid 900 mg/m^2 (or 150 mg/kg) daily on days 1-3. Drug was dissolved in distilled water and prepared fresh daily. Animals were fasted prior to dosing. Under current FDA guidelines for extrapolating starting dosages from animals to humans, dosages expressed in mg/m^2 are considered equivalent between mammalian species. Thus, for example, 18 mg/m^2 in a rat is considered equivalent to 18 mg/m^2 in a human being, while 3 mg/kg in a rat may not be equivalent to 3 mg/kg in a human being.
Values for inflammatory pain (mechanical hyperalgesia) in the vehicle and drug-treated animals were obtained on day 0 prior to CFA injection, and at baseline and post-treatment on days 1-3. Pain was assessed using a digital Randall-Selitto device (dRS; IITC Life Sciences, Woodland Hills, CA). Animals were placed in a restraint sling that suspended the animal, leaving the hind limbs available for testing. Paw compression threshold was measured by applying increasing pressure to the plantar surface of the hind paw with a dome-shaped tip placed between the 3rd and 4th metatarsus. Pressure was applied gradually over approximately 10 seconds. Measurements were taken from the first observed nocifensive behavior of vocalization, struggle or withdrawal. A cut-off value of 300 g was used to prevent injury to the animal.
Reversal of inflammatory pain was calculated according to the formula:
% reversal=(Post-treatment−Post-CFA baseline)/(Pre-CFA baseline−Post-CFA baseline)×100.
The experiment was carried out using 9-10 animals per group.

[2] = system: complex regional pain syndrome (CRPS); experiment: rat tibia fracture model of CRPS, dosing starting four weeks after fracture; assay type: in vivo
Description: A study was performed to evaluate the efficacy of bisphosphonates such as oral zoledronic acid in inhibiting immune responses and pain behavior in a rat fracture model of CRPS.
The effect of orally administered zoledronic acid was examined in the rat tibia fracture model of complex regional pain syndrome (CRPS). CRPS was induced in the rats by fracturing the right distal tibias of the animals and casting the fractured hindpaws for 4 weeks, as described in Guo T Z et al. (Pain. 2004; 108: 95-107).
Starting four weeks after fracture and casting, animals were orally administered either vehicle (control) or zoledronic acid, a dose of 21 mg/kg on the first day and 3 mg/kg/day daily thereafter, or distilled water for 3 weeks (weeks 4-7 post-fracture). Drug was dissolved in distilled water and administered by gavage. Animals were fasted for 4 hours before and 2 hours after dosing. At the end of the 21-day period, casts were removed, and on the following day, the rats were tested for hindpaw pain, edema, and warmth.

[3] = oral 21 mg/kg first day then 3 mg/kg/day, weeks 4-7 post-fracture

O=P(O)(O)C(O)(Cn1ccnc1)P(=O)(O)O [zoledronic acid]
paw compression thresholds compared to vehicle ([1]; 120 mg/m^2 (20 mg/kg) oral daily, all time points): approximately equal or inferior to vehicle | toxicity ([1]; 900 mg/m^2 oral daily days 1-3, euthanization of all animals two days after cessation of dosing): significant toxicity | inflammatory pain thresholds compared to vehicle ([1]; oral administration): significantly improved | hindlimb weight bearing [2, 3]: over 90 % of normal | overall effect compared to vehicle treated animals [2, 3]: reversed pain and restored weight bearing | von Frey pain thresholds for the right (fracture) hindpaw, change as compared to baseline [2, 3]: over 100% | pain relief, dosing four weeks after fracture versus dosing at the time of injury ([2]; oral, FIG. 18): significantly greater improvement of pain relief
